# Assay results as given in patent US12624017B2, “Salt form of isoquinolinone type compound as rock inhibitor and preparation method therefor” (GUANGZHOU OCUSUN OPHTHALMIC BIOTECHNOLOGY CO., LTD., priority 2020, dated 2026).
# Legend:
# Type in all cases: in vivo, New Zealand white rabbits
# [1] = tested on: New Zealand rabbits with normal intraocular pressure; experiment: Eye irritation response detection with hand-held slit lamp, 14 days eye drops; settings: 0.25 to 4 mg/mL; 14 consecutive days; 50 μl/eye/day
# Protocol: (§1) 42 male New Zealand white rabbits were randomly grouped into 7 groups according to body weights, 6 rabbits/group. Among the animals in Groups 1-7, the left eye was administrated dropwise with normal saline, and the right eye was administrated dropwise with a solvent/control/test article in an administration volume of 50 μL/eye respectively, once a day for 14 consecutive days, and the day of first administration was recorded as Day 1. The intraocular pressures of the animals were measured before administration on Day 1, as well as at 1 h, 2 h, 4 h, 6 h, 8 h and 10 h after administration on Day 1 (Table 10).
# Animals were subjected to eye irritation response detection and fluorescein sodium detection (scored according to scoring criteria) in both eyes with a hand-held slit lamp before the start of test (Day −2/Day −1), before daily administration (Day 1 to Day 14), and at 1 h, 2 h, 4 h, 24 h, 48 h, and 72 h after the last administration (Day 14).
# Animals were subjected to eye irritation response detection in both eyes with a handheld slit lamp on Day −2 to Day −1 before the start of test, before first administration every day (Day 1 to Day 14), and at 1 h, 2 h, 4 h, 24 h, 48 h, and 72 h after the last administration. The scoring criteria were as follows: […]
# [2] = tested on: New Zealand rabbits suffered with acute intraocular hypertension; experiment: Intraocular pressure reduction test in acute intraocular hypertension model; settings: for Intraocular pressure in left eye: left eye (solvent only); for Intraocular pressure in right eye: 50 μL, right eye (modelled, dosed)
# Excerpt: Acute intraocular hypertension was induced for rabbits by injection of a viscoelastic agent into the anterior chamber, and the effects of ocular pressure reduction of the compound of formula (I) were inspected by administration of eye drops at different concentrations.
# Male New Zealand white rabbits, aged 97 to 127 days, weighted 2.5 to 3.4 kg, purchased from Pizhou Oriental Breeding Co., Ltd.
# 50 male New Zealand white rabbits were randomly divided into 5 groups according to body weight, 10 rabbits/group. The anterior chambers of the right eyes of animals in Groups 1 to 5 were injected with medical sodium hyaluronate gel in a single dose, 100 μL/eye, to induce ocular hypertension in the animals. In 5 to 15 min after molding, the right eye was administrated dropwise with the solvent, K-115, and the test article (compounds of formula (I) of different concentrations), and the left eye was administrated dropwise with the solvent, 50 μL/eye; and the intraocular pressures of the animals in both eyes were measured before administration, as well as at 2, 4, 6, 8, and 10 h after administration, respectively.
# [3] = tested on: New Zealand rabbits with normal intraocular pressure; experiment: Intraocular pressure reduction, normal intraocular pressure, Day 1 (Operation II); settings: for Average intraocular pressure in both eyes: Day 1
# Excerpt: An intraocular pressure reduction effect and potential ocular toxicity of the compound of formula (I) were inspected with rabbits with normal intraocular pressure by repeated administration of eye drops for 14 days.
# Male New Zealand white rabbits, aged 97 to 127 days, weighted 2.6-3.5 kg, purchased from Pizhou Oriental Breeding Co., Ltd.
# as §1
smiles,measurement,setting,value
Cc1ccc(C(=O)OCn2cc(C)c3c(S(=O)(=O)N4CC[C@H](N)C4)cccc3c2=O)c(C)c1 [Compound of formula (I)],Eye irritation (conclusion),[1],no irritation
same,Intraocular pressure in left eye,"[2]; 0.25 mg/mL group, 2 h after administration",6.07 mmHg
same,Intraocular pressure in left eye,"[2]; 0.25 mg/mL group, 4 h after administration",6.60 mmHg
same,Intraocular pressure in left eye,"[2]; 0.25 mg/mL group, 6 h after administration",9.10 mmHg
same,Intraocular pressure in left eye,"[2]; 0.25 mg/mL group, 8 h after administration",11.50 mmHg
same,Intraocular pressure in left eye,"[2]; 0.25 mg/mL group, 10 h after administration",12.43 mmHg
same,Intraocular pressure in left eye,"[2]; 0.25 mg/mL group, before administration",10.53 mmHg
same,Intraocular pressure in right eye,"[2]; 0.25 mg/mL, 2 h after administration",8.47 mmHg
same,Intraocular pressure in right eye,"[2]; 0.25 mg/mL, 4 h after administration",8.60 mmHg
same,Intraocular pressure in right eye,"[2]; 0.25 mg/mL, 6 h after administration",11.20 mmHg
same,Intraocular pressure in right eye,"[2]; 0.25 mg/mL, 8 h after administration",13.37 mmHg
same,Intraocular pressure in right eye,"[2]; 0.25 mg/mL, 10 h after administration",13.10 mmHg
same,Intraocular pressure in right eye,"[2]; 0.25 mg/mL, before administration",11.43 mmHg
same,Intraocular pressure in left eye,"[2]; 2.0 mg/mL group, 2 h after administration",6.60 mmHg
same,Intraocular pressure in left eye,"[2]; 2.0 mg/mL group, 4 h after administration",7.04 mmHg
same,Intraocular pressure in left eye,"[2]; 2.0 mg/mL group, 6 h after administration",11.23 mmHg
same,Intraocular pressure in left eye,"[2]; 2.0 mg/mL group, 8 h after administration",12.84 mmHg
same,Intraocular pressure in left eye,"[2]; 2.0 mg/mL group, 10 h after administration",13.10 mmHg
same,Intraocular pressure in left eye,"[2]; 2.0 mg/mL group, before administration",11.27 mmHg
same,Intraocular pressure in right eye,"[2]; 2.0 mg/mL, 2 h after administration",8.52 mmHg
same,Intraocular pressure in right eye,"[2]; 2.0 mg/mL, 4 h after administration",11.56 mmHg
same,Intraocular pressure in right eye,"[2]; 2.0 mg/mL, 6 h after administration",13.81 mmHg
same,Intraocular pressure in right eye,"[2]; 2.0 mg/mL, 8 h after administration",12.96 mmHg
same,Intraocular pressure in right eye,"[2]; 2.0 mg/mL, 10 h after administration",11.96 mmHg
same,Intraocular pressure in right eye,"[2]; 2.0 mg/mL, before administration",11.23 mmHg
same,Intraocular pressure in left eye,"[2]; 8.0 mg/mL group, 2 h after administration",5.93 mmHg
same,Intraocular pressure in left eye,"[2]; 8.0 mg/mL group, 4 h after administration",6.43 mmHg
same,Intraocular pressure in left eye,"[2]; 8.0 mg/mL group, 6 h after administration",10.10 mmHg
same,Intraocular pressure in left eye,"[2]; 8.0 mg/mL group, 8 h after administration",11.87 mmHg
same,Intraocular pressure in left eye,"[2]; 8.0 mg/mL group, 10 h after administration",13.19 mmHg
same,Intraocular pressure in left eye,"[2]; 8.0 mg/mL group, before administration",11.20 mmHg
same,Intraocular pressure in right eye,"[2]; 8.0 mg/mL, 2 h after administration",7.40 mmHg
same,Intraocular pressure in right eye,"[2]; 8.0 mg/mL, 4 h after administration",7.97 mmHg
same,Intraocular pressure in right eye,"[2]; 8.0 mg/mL, 6 h after administration",8.84 mmHg
same,Intraocular pressure in right eye,"[2]; 8.0 mg/mL, 8 h after administration",8.60 mmHg
same,Intraocular pressure in right eye,"[2]; 8.0 mg/mL, 10 h after administration",8.78 mmHg
same,Intraocular pressure in right eye,"[2]; 8.0 mg/mL, before administration",11.53 mmHg
same,Intraocular pressure reduction effect (conclusion),"[2]; at different test doses (0.25, 2.0, 8.0 mg/mL), amplitude and sustained effect better than K-115",good intraocular pressure reduction effects
same,Average intraocular pressure in both eyes,"[3]; 0.25 mg/mL in right eye, 1 h after administration",6.22 mmHg
same,Average intraocular pressure in both eyes,"[3]; 0.25 mg/mL in right eye, 2 h after administration",6.17 mmHg
same,Average intraocular pressure in both eyes,"[3]; 0.25 mg/mL in right eye, 4 h after administration",6.67 mmHg
same,Average intraocular pressure in both eyes,"[3]; 0.25 mg/mL in right eye, 6 h after administration",8.06 mmHg
same,Average intraocular pressure in both eyes,"[3]; 0.25 mg/mL in right eye, 8 h after administration",9.72 mmHg
same,Average intraocular pressure in both eyes,"[3]; 0.25 mg/mL in right eye, 10 h after administration",10.95 mmHg
same,Average intraocular pressure in both eyes,"[3]; 0.25 mg/mL in right eye, before administration",9.84 mmHg
same,Average intraocular pressure in both eyes,"[3]; 0.5 mg/mL in right eye, 1 h after administration",5.39 mmHg
same,Average intraocular pressure in both eyes,"[3]; 0.5 mg/mL in right eye, 2 h after administration",5.50 mmHg
same,Average intraocular pressure in both eyes,"[3]; 0.5 mg/mL in right eye, 4 h after administration",6.95 mmHg
same,Average intraocular pressure in both eyes,"[3]; 0.5 mg/mL in right eye, 6 h after administration",8.94 mmHg
same,Average intraocular pressure in both eyes,"[3]; 0.5 mg/mL in right eye, 8 h after administration",9.89 mmHg
same,Average intraocular pressure in both eyes,"[3]; 0.5 mg/mL in right eye, 10 h after administration",11.56 mmHg
same,Average intraocular pressure in both eyes,"[3]; 0.5 mg/mL in right eye, before administration",9.22 mmHg
same,Average intraocular pressure in both eyes,"[3]; 1.0 mg/mL in right eye, 1 h after administration",5.56 mmHg
same,Average intraocular pressure in both eyes,"[3]; 1.0 mg/mL in right eye, 2 h after administration",5.39 mmHg
same,Average intraocular pressure in both eyes,"[3]; 1.0 mg/mL in right eye, 4 h after administration",6.67 mmHg
same,Average intraocular pressure in both eyes,"[3]; 1.0 mg/mL in right eye, 6 h after administration",7.33 mmHg
same,Average intraocular pressure in both eyes,"[3]; 1.0 mg/mL in right eye, 8 h after administration",10.50 mmHg
same,Average intraocular pressure in both eyes,"[3]; 1.0 mg/mL in right eye, 10 h after administration",10.89 mmHg
same,Average intraocular pressure in both eyes,"[3]; 1.0 mg/mL in right eye, before administration",9.17 mmHg
same,Average intraocular pressure in both eyes,"[3]; 2.0 mg/mL in right eye, 1 h after administration",8.11 mmHg
same,Average intraocular pressure in both eyes,"[3]; 2.0 mg/mL in right eye, 2 h after administration",5.84 mmHg
same,Average intraocular pressure in both eyes,"[3]; 2.0 mg/mL in right eye, 4 h after administration",6.06 mmHg
same,Average intraocular pressure in both eyes,"[3]; 2.0 mg/mL in right eye, 6 h after administration",7.11 mmHg
same,Average intraocular pressure in both eyes,"[3]; 2.0 mg/mL in right eye, 8 h after administration",9.00 mmHg
same,Average intraocular pressure in both eyes,"[3]; 2.0 mg/mL in right eye, 10 h after administration",10.05 mmHg
same,Average intraocular pressure in both eyes,"[3]; 2.0 mg/mL in right eye, before administration",9.72 mmHg
same,Average intraocular pressure in both eyes,"[3]; 4.0 mg/mL in right eye, 1 h after administration",6.61 mmHg
same,Average intraocular pressure in both eyes,"[3]; 4.0 mg/mL in right eye, 2 h after administration",5.84 mmHg
same,Average intraocular pressure in both eyes,"[3]; 4.0 mg/mL in right eye, 4 h after administration",5.72 mmHg
same,Average intraocular pressure in both eyes,"[3]; 4.0 mg/mL in right eye, 6 h after administration",6.61 mmHg
same,Average intraocular pressure in both eyes,"[3]; 4.0 mg/mL in right eye, 8 h after administration",8.39 mmHg
same,Average intraocular pressure in both eyes,"[3]; 4.0 mg/mL in right eye, 10 h after administration",10.67 mmHg
same,Average intraocular pressure in both eyes,"[3]; 4.0 mg/mL in right eye, before administration",10.00 mmHg
same,Efficacy of single administration (conclusion),"[3]; all tested doses (0.25 to 4.0 mg/mL), compared with K-115",better efficacy
